{"source": "patent US11672790B2", "about": "“Methods of managing conditioned fear with neurokinin receptor antagonists” (Emory University, priority 2014, dated 2023)", "key": {"[1]": {"system": "Tac2-expressing neurons in the CeA", "experiment": "Gi-DREADD silencing of Tac2-expressing CeA neurons with CNO, fear conditioning and elevated plus maze", "type": "in vivo, mice", "protocol": "Tac2-Cre^− or Tac2-Cre^+ mice were infected with the hM4Di-mCherry AAV in the CeA. The Gi receptor was inserted only on the Tac2-Cre cells of Tac2-Cre+mice, CeM=centro-medial amygdala, CeL=centro-lateral amygdala. CNO was given systemically 30 minutes prior to fear conditioning to Tac2-Cre-/hM4Di-mCherry and Tac2 Cre+/hM4DimCherry. […] Tac2-Cre-/hM4DimCherry vs Tac2-Cre+/hM4Di-mCherry. Tac2-Cre-/hM4Di-mCherry and Tac2-Cre+/hM4Di-mCherry mice were retrained to a different acoustic tone (CS) without receiving CNO.\nTo further understand the role of the Tac2 gene, the activity of neurons expressing this gene in the CeA were temporarily silenced during fear learning using designer receptors exclusively activated by designer drugs (DREADD) technology. The B6.129-Tac2tm1.1(cre) Qima/J (Tac2-cre) (Mar et al., Mol. Brain, 2012, 5, 3) mice were infected with a DREADD Gi-coupled receptor via the pAAV-hSyn-double floxed hM4D-mCherry virus (hM4Di-mCherry AAV). […] 14 days later, clozapine-N-oxide (CNO), which binds to the inserted receptor but otherwise is pharmacologically inert, was given systemically 30 minutes before FC in both groups, Tac2-Cre-/hM4Di-mCherry and Tac2-Cre+/hM4Di-mCherry. CNO had no effect on fear acquisition as shown by equivalent amount of freezing in both groups (FIG. 5A). […] Mice were then retrained with a different CS and a different context in the same FC apparatus, as in previous experiments but without dosing CNO."}, "[2]": {"target": "T1, Nk3R (Mus musculus, UniProt P47937)", "T1 construct": "endogenous in cells; host or cells: mouse amygdala cell culture (primary)", "T1 sequence (P47937 1-452)": "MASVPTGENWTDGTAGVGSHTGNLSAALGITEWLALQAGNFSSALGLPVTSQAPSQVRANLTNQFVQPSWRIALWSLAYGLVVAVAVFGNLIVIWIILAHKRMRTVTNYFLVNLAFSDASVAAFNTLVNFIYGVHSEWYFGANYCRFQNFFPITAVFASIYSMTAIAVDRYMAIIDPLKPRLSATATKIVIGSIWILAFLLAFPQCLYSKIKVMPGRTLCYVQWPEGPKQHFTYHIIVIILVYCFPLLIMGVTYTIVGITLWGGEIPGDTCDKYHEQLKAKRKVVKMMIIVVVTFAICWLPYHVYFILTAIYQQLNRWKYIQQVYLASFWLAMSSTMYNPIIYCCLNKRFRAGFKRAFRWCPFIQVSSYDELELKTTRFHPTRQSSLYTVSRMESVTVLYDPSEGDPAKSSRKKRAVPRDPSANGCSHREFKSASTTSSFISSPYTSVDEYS", "experiment": "Amygdala cell culture incubated with osanetant, Nk3R mRNA levels", "type": "cell-based", "conditions": "incubation with 20 μg and 40 μg of osanetant, vs Veh", "excerpt": "Moreover, NkB peptide is also highly expressed in the CeA. […] The Nk3R antagonist osanetant has already been used in humans in clinical trials for schizophrenia."}, "[3]": {"system": "mice", "experiment": "Open field, systemic osanetant 30 minutes before", "type": "in vivo", "conditions": "30 minutes before open field", "protocol": "(§1) Different cohorts of mice received systemic osanetant 30 minutes before open field, elevated plus maze or fear conditioning in the startle chamber.\n(§2) The above studies indicate that osanetant would target the Nk3R in the amygdale in vivo. Osanetant given systemically, 30 minutes before open field, elevated plus maze and the conditioning chamber elicits no changes in anxiety-like behavior, locomotor activity or electric shock reactivity."}, "[4]": {"system": "mice", "experiment": "Elevated plus maze, systemic osanetant 30 minutes before", "type": "in vivo", "conditions": "30 minutes before elevated plus maze", "protocol": "as §1\nFIG. 6C time in open arms,\nFIG. 6D entries in open arms, and\nFIG. 6E time in closed arms in the elevated plus maze.\nas §2"}, "[5]": {"system": "mice", "experiment": "Shock reactivity in the startle chamber", "type": "in vivo", "conditions": "systemic, 30 minutes before testing in the startle chamber", "protocol": "as §1, §2"}, "[6]": {"system": "mice", "experiment": "Auditory cued fear conditioning and fear expression test, systemic osanetant", "type": "in vivo", "conditions": "dosed from 30 min before FC up to 1 hour after training; for fear memory consolidation, freezing in the fear expression test: vs vehicle"}, "[7]": {"system": "Pac1 receptor (Adcyap1r1)", "experiment": "Adcyap1r1 (PAC1 receptor) mRNA levels in the amygdala after fear conditioning", "type": "in vivo, mice", "conditions": "intraperitoneally 30 minutes before fear conditioning, vs Veh-FC", "excerpt": "The PACAP-PAC1R pathway is associated with PTSD, fear conditioning and stress.\n(§3) Recently, the PACAP-PAC1R pathway has been associated with PTSD in humans as well as in animal models. (See Stevens et al., 2014)."}, "[8]": {"target": "T2, CeA-NK3R (Mus musculus, UniProt P47937)", "T2 construct": "from tissue; host or cells: central amygdala of living mice (in vivo infusion)", "T2 sequence (P47937 1-452)": "T1 sequence (P47937 1-452)", "experiment": "Osanetant bilaterally injected into the central amygdala, cued-fear expression test", "type": "in vivo, mice", "conditions": "bilateral infusion in the CeA immediately after fear conditioning; vs vehicle", "excerpt": "as §3"}, "[9]": {"system": "IMO treated mice", "experiment": "Fear conditioning after immobilization to a wooden board (IMO), PTSD-like model", "type": "in vivo", "conditions": "systemic immediately after FC", "protocol": "Veh=vehicle; Osa=osanetant.\nMice exposed for 2 hours to a severe one-time stressor, immobilization to a wooden board (IMO), present long-term PTSD-like symptoms: impaired fear extinction and spatial memory, and enhanced anxiety-like behaviors. Additionally, IMO in rats elicits alterations of the hypothalamic-pituitary-adrenal (HPA) axis which may be similar to the process initiating PTSD in humans."}, "[10]": {"system": "mice", "experiment": "Fear conditioning in mice with LV-Tac2 or LV-GFP infused in the central amygdala, systemic osanetant", "type": "in vivo", "conditions": "systemic immediately after FC, tested 24 hours later", "excerpt": "The lentivirus GFP-FUGW induces GFP expression but not Neurokinin B (NkB) in Hek293 cells. […] Tac2-FUGW or GFP-FUGW were bilaterally infused in the central amygdala and mice were left undisturbed for 14 days.\nThe lentiviruses GFP-FUGW and Tac2-FUGW causes no changes in fear conditioning. Osanetant or vehicle were given systemically immediately after fear acquisition.\nA viral vector was developed to overexpress the Tac2 gene in an inducible fashion within the brain, the lentivirus-Tac2 (LV-Tac2). […] The behavioral effects of Tac2 overexpression was examined in mice. […] Mice infected with the LVTac2 or LV-GFP received systemic osanetant or vehicle immediately after FC, and then fear expression was tested 24 hours later. Specific CeA-Tac2 overexpression elicited a significant enhancement of fear memory consolidation. […] Additionally, the enhanced fear memory consolidation caused by CeA-Tac2 overexpression was reversed by osanetant (Post-hoc, **P≤0.01 vs LV-Tac2-Osa and LV-GFP-Osa FIG. 4D)."}, "[11]": {"system": "guinea-pigs", "conditions": "cited from earlier work"}}, "note": "Entries after “also recorded” stand apart in the source; their conditions may differ."}
{"smiles": "C[N+]1([O-])CCN(C2=Nc3cc(Cl)ccc3Nc3ccccc32)CC1", "note": "[CNO, clozapine-N-oxide]", "values": [{"measurement": "anxiety-like behavior, elevated plus maze", "setting": "[1]; CNO 30 minutes before, both Tac2-Cre groups", "value": "equivalent levels; also recorded: no effect"}, {"measurement": "fear acquisition, freezing", "setting": "[1]; CNO systemically 30 minutes before FC, Tac2-Cre-/hM4Di-mCherry and Tac2-Cre+/hM4Di-mCherry", "value": "no effect; also recorded: did not affect freezing during fear acquisition"}, {"measurement": "fear expression, freezing 24 hrs later in the absence of CNO", "setting": "[1]; Tac2-Cre+/hM4Di-mCherry vs Tac2-Cre-/hM4Di-mCherry, CNO 30 minutes before FC", "value": "less freezing; also recorded: less conditioned fear"}, {"measurement": "pain sensitivity", "setting": "[1]; given CNO, both Tac2-Cre groups", "value": "equivalent levels"}]}
{"smiles": "CC(=O)N(C)C1(c2ccccc2)CCN(CCC[C@]2(c3ccc(Cl)c(Cl)c3)CCCN(C(=O)c3ccccc3)C2)CC1", "note": "[osanetant, (R)-N-{{3-[1-Benzoyl-3-(3,4-dichlorophenyl)piperidin-3-yl]prop-1-yl}-4-phenylpiperidin-4-yl}-N-methylacetamine]", "values": [{"measurement": "Nk3R mRNA levels", "setting": "[2]", "value": "dose-dependent enhanced Nk3R mRNA levels; also recorded: enhances Nk3R mRNA levels; also recorded: increases Nk3R mRNA levels"}, {"measurement": "anxiety-like behavior, time in the center of the open field", "setting": "[3]", "value": "no effects"}, {"measurement": "locomotor activity, distance travelled in the open field", "setting": "[3]", "value": "no effects; also recorded: equivalent distance travelled"}, {"measurement": "anxiety-like behavior, time in the center of the open field", "setting": "[3]; listed as Osanetant", "value": "no changes; also recorded: did not modified anxiety-like behavior"}, {"measurement": "locomotor activity, distance travelled in the open field", "setting": "[3]; listed as Osanetant", "value": "no changes"}, {"measurement": "anxiety-like behavior in the elevated plus maze (time in open arms, entries in open arms, time in closed arms)", "setting": "[4]", "value": "no effects"}, {"measurement": "anxiety-like behavior in the elevated plus maze (time in open arms, entries in open arms, time in closed arms)", "setting": "[4]; listed as Osanetant", "value": "no changes; also recorded: did not modified anxiety-like behavior"}, {"measurement": "electric shock reactivity", "setting": "[5]", "value": "no effects; also recorded: Equivalent shock reactivity"}, {"measurement": "electric shock reactivity", "setting": "[5]; listed as Osanetant", "value": "no changes"}, {"measurement": "fear acquisition", "setting": "[6]", "value": "does not affect fear acquisition"}, {"measurement": "fear acquisition", "setting": "[6]; listed as Osanetant", "value": "without affecting fear expression"}, {"measurement": "fear memory consolidation, freezing in the fear expression test", "setting": "[6]", "value": "impairs fear memory consolidation; also recorded: impairs fear learning"}, {"measurement": "fear memory consolidation, freezing in the fear expression test", "setting": "[6]; listed as Osanetant", "value": "impairs cued-fear memory; also recorded: impairs fear memory consolidation"}, {"measurement": "Adcyap1r1 (PAC1 receptor) mRNA levels in the amygdala", "setting": "[7]", "value": "impaired the enhancement of mRNA levels"}, {"measurement": "Adcyap1r1 (PAC1 receptor) mRNA levels in the amygdala", "setting": "[7]; listed as Osanetant", "value": "normalizes the levels; also recorded: prevented the up-regulation"}, {"measurement": "fear memory consolidation, freezing in the cued-fear expression test", "setting": "[8]", "value": "impaired fear memory consolidation"}, {"measurement": "fear memory consolidation, freezing in the fear expression test", "setting": "[9]", "value": "impaired memory consolidation"}, {"measurement": "fear memory consolidation, freezing in the fear expression test", "setting": "[9]; listed as Osanetant", "value": "impaired fear memory consolidation"}, {"measurement": "enhanced fear memory consolidation caused by CeA-Tac2 overexpression", "setting": "[10]; LV-Tac2 mice", "value": "reversed; also recorded: impairs this effect"}, {"measurement": "fear memory consolidation", "setting": "[10]; control LV-GFP mice, vs LV-GFP-Veh", "value": "impaired fear memory consolidation"}, {"measurement": "substance P-induced bronchial hyperreactivity", "setting": "[11]", "value": "prevents"}]}
